From US11472803B2, “7-substituted 1-aryl-naphthyridine-3-carboxylic acid amides and use thereof” (Bayer Aktiengesellschaft, priority 2016, dated 2022)

Columns and labels:
[1] = target: T1, human M2 receptor (Homo sapiens, UniProt P08172); assay: Functional M2-GIRK1/4 activation test: positive cooperativity (α factor), shift of acetylcholine dose-response curve; format: cell-based; conditions: Allosteric EC50 shift of acetylcholine 8-point dose-response curve; CHO-DUKX-M2-GIRK cells; α>1 = positive cooperativity
T1 construct: expressed in transfected cells; host or cells: CHO-DUKX (CHO-DUKX-M2-GIRK)
T1 sequence (P08172 1-466): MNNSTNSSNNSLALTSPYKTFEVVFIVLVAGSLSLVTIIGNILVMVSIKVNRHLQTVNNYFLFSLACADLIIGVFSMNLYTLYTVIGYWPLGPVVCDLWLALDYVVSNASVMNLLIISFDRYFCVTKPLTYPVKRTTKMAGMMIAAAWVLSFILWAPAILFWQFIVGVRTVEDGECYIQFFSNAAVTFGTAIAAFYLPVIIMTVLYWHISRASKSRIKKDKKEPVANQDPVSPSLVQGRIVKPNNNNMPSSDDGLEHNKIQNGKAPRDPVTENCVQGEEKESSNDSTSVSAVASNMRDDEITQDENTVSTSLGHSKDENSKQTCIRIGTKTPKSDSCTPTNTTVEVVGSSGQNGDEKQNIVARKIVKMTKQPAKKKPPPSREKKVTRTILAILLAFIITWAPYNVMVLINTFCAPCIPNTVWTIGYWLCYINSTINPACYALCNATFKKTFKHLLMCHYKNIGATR
Description: The binding of orthosteric agonists (endogenous ligand: acetylcholine) to the M2 receptor leads to receptor activation or a change in conformation of the receptor in the manner of a shift in equilibrium in favour of the active receptor conformation.
The agonist-induced change in conformation of the M2 receptor results in a Gαi protein activation. […] Under physiological conditions, the result is then a selective efflux of potassium from the cell along the electrochemical gradient. […] The extent of hyperpolarization can therefore be regarded as a measure of the activation of the M2 receptor.
The test cell used is a recombinant CHO-DUKX cell line which has been stably transfected with cDNA coding for the human M2 receptor and with cDNA coding for both GIRK1/4 subunits (CHO-DUKX-M2-GIRK). The transmembrane potential, or the relative changes in the transmembrane potential as a function of substance addition or M2 activation, is determined by means of a voltage-sensitive dye (FLIPR Membrane Potential Assay Kit Blue, Molecular Devices #R8034) and the measurement of cell fluorescence using a proprietary fluorescence imaging instrument.
In accordance with the desired test concentrations, the substances were pre-diluted in loading buffer (see above).
The sowing medium consisted of MEM alpha medium (supplemented with 5% PCS, 2% Glutamax, no genticin).
For the particular measurement, the medium was removed and the cells were laden with the volt-age-sensitive dye for at least 6 min at room temperature (30 μl of loading buffer per 384-well). This was followed, in a first measurement, by the determination of the resting transmembrane potential for a period of 5 sec in 1 sec increments. Thereafter, 10 μl in each case of the test substances diluted in loading buffer are added, followed by a second measurement to determine the transmembrane potential for a period of 50 sec in 1 sec increments.
Finally, the cells are admixed with 10 μl of agonist solution (acetylcholine dissolved in loading buffer). In contrast to the EC50 determination of the test substances (see B-1.1), however, this is not done using one acetylcholine concentration; instead, every concentration of the test substance is combined with an acetylcholine 8-point dose-response curve. […] The M2-mediated GIRK1/4 activation or hyperpolarization is then monitored in a third measurement over a period of 60 sec in 1 sec increments. The shift in the acetylcholine dose-response curve in the presence of increasing concentrations of the test substance is analysed and quantified by means of GraphPad PRISM (Allosteric EC50 shift). […] Positive cooperativity is the hallmark of a positive allosteric modulator. […] The greater the magnitude of the α value, the greater the extent of cooperativity between orthosteric and allosteric.

[2] = target: T1, human M2 receptor; assay: Functional M2-GIRK1/4 activation test: allosteric potency (EC50) and efficiency at EC20 acetylcholine; format: cell-based; conditions: CHO-DUKX-M2-GIRK cells; for EC50: voltage-sensitive dye, acetylcholine at EC20, in some cases mean of two or more determinations; for Emax / Efficiency: boosting of the acetylcholine effect at EC20 acetylcholine concentration
Method in brief: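 CHO-DUKX cells stably expressing human M2 and GIRK1/4; membrane potential tracked with voltage-sensitive dye at room temperature. Compound added 50 s before acetylcholine at its EC20, then hyperpolarization read 60 s. EC50 (allosteric potency) and efficiency (boost of EC20 ACh effect) from 4-parameter Hill fit.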

SMILES | Cooperativity (alpha factor) [1] | EC50 [2] | Emax [2] | Efficiency [2]
O=C(NC(C1CC1)C(F)(F)C(F)(F)F)c1cn(-c2c(F)cc(F)cc2F)c2nc(N3C[C@@H](O)[C@H](O)C3)c(F)cc2c1=O (single isomer, unassigned) [Example 201] | 39 | 1.6 nM | 100% | –
O=C(NC(C1CC1)C(F)(F)C(F)(F)F)c1cn(-c2c(F)cc(F)cc2F)c2nc(N3CC(CO)(CO)C3)c(F)cc2c1=O (single isomer, unassigned) [Example 205, 7-[3,3-bis(hydroxymethyl)azetidin-1-yl]-N-[1-cyclopropyl-2,2,3,3,3-pentafluoropropyl]-6-fluoro-4-oxo-1-(2,4,6-trifluorophenyl)-1,4-dihydro-1,8-naphthyridine-3-carboxamide] | 25 | 3.1 nM | 100% | –
O=C(NC(C1CC1)C(F)(F)C(F)(F)F)c1cn(-c2c(F)cc(F)cc2F)c2nc(N3CC(CO)(CO)C3)c(F)cc2c1=O (single isomer, unassigned) [Example 207, 7-[3,3-bis(hydroxymethyl)azetidin-1-yl]-N-[1-cyclopropyl-2,2,3,3,3-pentafluoropropyl]-6-fluoro-4-oxo-1-(2,4,6-trifluorophenyl)-1,4-dihydro-1,8-naphthyridine-3-carboxamide] | 24 | 3.3 nM | – | 100%
C[C@H](NC(=O)c1cn(-c2c(F)cc(F)cc2Cl)c2nc(N3C[C@@H](O)[C@H](O)C3)c(F)cc2c1=O)C(F)(F)F (single isomer, unassigned) [Example 226] | 31 | 6.7 nM | – | 93%
C[C@@H](NC(=O)c1cn(-c2c(F)cc(F)cc2Cl)c2nc(N3C[C@@H](O)[C@H](O)C3)c(F)cc2c1=O)C(F)(F)F (single isomer, unassigned) [Example 228] | 33 | 6.4 nM | – | 93%
CC(C)C[C@H](NC(=O)c1cn(-c2c(F)cc(F)cc2F)c2nc(N3CC(O)[C@H](O)C3)c(F)cc2c1=O)C(F)(F)F (stereo in doubt) [Example 11, 7-[(3R,4S)-3,4-dihydroxypyrrolidin-1-yl]-6-fluoro-4-oxo-N-[(2S)-1,1,1-trifluoro-4-methylpentan-2-yl]-1-(2,4,6-trifluorophenyl)-1,4-dihydro-1,8-naphthyridine-3-carboxamide] | 60 | 5.8 nM | 100% | –
CC(C)(CC(F)(F)F)NC(=O)c1cn(-c2c(F)cccc2F)c2nc(N3C[C@@H](O)[C@H](O)C3)c(F)cc2c1=O [Example 1, 1-(2,6-Difluorophenyl)-7-[(3R,4R)-3,4-dihydroxypyrrolidin-1-yl]-6-fluoro-4-oxo-N-(4,4,4-tri-fluoro-2-methylbutan-2-yl)-1,4-dihydro-1,8-naphthyridine-3-carboxamide] | 35 | 21 nM | 92% | –
CC[C@H](NC(=O)c1cn(-c2c(F)cc(F)cc2F)c2nc(N3C[C@@H](O)[C@H](O)C3)c(F)cc2c1=O)C(F)(F)F [Example 6, 7-[(3R,4R)-3,4-Dihydroxypyrrolidin-1-yl]-6-fluoro-4-oxo-N-[(2S)-1,1,1-trifluorobutan-2-yl]-1-(2,4,6-trifluorophenyl)-1,4-dihydro-1,8-naphthyridine-3-carboxamide] | 58 | 6.17 nM | 94% | –
O=C(N[C@@H](C1CC1)C(F)(F)F)c1cn(-c2c(F)cc(F)cc2F)c2nc(N3C[C@@H](O)[C@H](O)C3)c(F)cc2c1=O [Example 7, N-[(1S)-1-Cyclopropyl-2,2,2-trifluoroethyl]-7-[(3R,4R)-3,4-dihydroxypyrrolidin-1-yl]-6-fluoro-4-oxo-1-(2,4,6-trifluorophenyl)-1,4-dihydro-1,8-naphthyridine-3-carboxamide] | 57 | 5.64 nM | 93% | –
O=C(NC12CC(C1)C2)c1cn(-c2c(F)cc(F)cc2F)c2nc(N3C[C@@H](O)[C@H](O)C3)c(F)cc2c1=O [Example 12, N-(bicyclo[1.1.1]pent-1-yl)-7-[(3R,4R)-3,4-dihydroxypyrrolidin-1-yl]-6-fluoro-4-oxo-1-(2,4,6-trifluorophenyl)-1,4-dihydro-1,8-naphthyridine-3-carboxamide] | 40 | 20 nM | 90% | –
CC(C)(CC(F)(F)F)NC(=O)c1cn(-c2c(F)cc(F)cc2F)c2nc(N3C[C@@H](O)[C@H](O)C3)c(F)cc2c1=O [Example 13, 7-[(3R,4R)-3,4-dihydroxypyrrolidin-1-yl]-6-fluoro-4-oxo-N-(4,4,4-trifluoro-2-methylbutan-2-yl)-1-(2,4,6-trifluorophenyl)-1,4-dihydro-1,8-naphthyridine-3-carboxamide] | 49 | 6.2 nM | 94% | –
CC(C)C[C@@H](NC(=O)c1cn(-c2c(F)cc(F)cc2F)c2nc(N3C[C@@H](O)[C@H](O)C3)c(F)cc2c1=O)C(F)(F)F [Example 14, 7-[(3R,45)-3,4-dihydroxypyrrolidin-1-yl]-6-fluoro-4-oxo-N-[(2R)-1,1,1-trifluoro-4-methylpentan-2-yl]-1-(2,4,6-trifluorophenyl)-1,4-dihydro-1,8-naphthyridine-3-carboxamide] | 49 | 5.5 nM | 100% | –
CC(C)[C@@H](C)NC(=O)c1cn(-c2c(F)cc(F)cc2F)c2nc(N3C[C@@H](O)[C@H](O)C3)c(F)cc2c1=O [Example 15, 7-[(3R,4R)-3,4-dihydroxypyrrolidin-1-yl]-6-fluoro-N-[(2R)-3-methylbutan-2-yl]-4-oxo-1-(2,4,6-trifluorophenyl)-1,4-dihydro-1,8-naphthyridine-3-carboxamide] | 41 | 9.15 nM | 96% | –
CC(C)[C@H](C)NC(=O)c1cn(-c2c(F)cc(F)cc2F)c2nc(N3C[C@@H](O)[C@H](O)C3)c(F)cc2c1=O [Example 16, 7-[(3R,4R)-3,4-dihydroxypyrrolidin-1-yl]-6-fluoro-N-[(2S)-3-methylbutan-2-yl]-4-oxo-1-(2,4,6-trifluorophenyl)-1,4-dihydro-1,8-naphthyridine-3-carboxamide] | 42 | 8.45 nM | 99% | –
C[C@H](NC(=O)c1cn(-c2c(F)cc(F)cc2F)c2nc(N3C[C@@H](O)[C@H](O)C3)c(F)cc2c1=O)C(F)(F)F [Example 18, 7-[(3R,4R)-3,4-dihydroxypyrrolidin-1-yl]-6-fluoro-4-oxo-1-(2,4,6-trifluorophenyl)-N-[(2S)-1,1,1-trifluoropropan-2-yl]-1,4-dihydro-1,8-naphthyridine-3-carboxamide] | 43 | 20.5 nM | 99% | –
CC(C)(NC(=O)c1cn(-c2c(F)cc(F)cc2F)c2nc(N3C[C@@H](O)[C@H](O)C3)c(F)cc2c1=O)C(F)F [Example 22, N-(1,1-difluoro-2-methylpropan-2-yl)-7-[(3R,4R)-3,4-dihydroxypyrrolidin-1-yl]-6-fluoro-4-oxo-1-(2,4,6-trifluorophenyl)-1,4-dihydro-1,8-naphthyridine-3-carboxamide] | 42 | 10 nM | 95% | –
